How the values were obtained:
Carbonic anhydrase 12 = Carbonic anhydrase 12 (Homo sapiens, UniProt O43570); assay: Inhibition of human CA12 measured after 15 mins by stopped flow carbon dioxide anhydrase assay
Carbonic anhydrase 9 = Carbonic anhydrase 9 (Homo sapiens, UniProt Q16790)
Description: Inhibition of human CA9 measured after 15 mins by stopped flow carbon dioxide anhydrase assay

Carbonic anhydrase 2 = Carbonic anhydrase 2 (Homo sapiens, UniProt P00918); assay: Inhibition of human CA2 measured after 15 mins by stopped flow carbon dioxide anhydrase assay
Carbonic anhydrase 1 = Carbonic anhydrase 1 (Homo sapiens, UniProt P00915); assay: Inhibition of human CA1 measured after 15 mins by stopped flow carbon dioxide anhydrase assay
MCF7 [1] = assay: cells; assay type: functional, cell-based; details: Homo sapiens, MCF7, 48 h
Description: Antiproliferative activity against human MCF7 cells assessed as inhibition of cell proliferation measured after 48 hrs by MTT assay

MCF7 [2] = assay: Induction of apoptosis in human MCF7 cells assessed as late apoptotic cells measured by AnnexinV/FITC staining based flow cytometry assay ( Rvb = 0.17%); assay type: functional
MCF7 [3] = assay: Induction of apoptosis in human MCF7 cells assessed as early apoptotic cells measured by AnnexinV/FITC staining based flow cytometry assay ( Rvb = 0.52%); assay type: functional
MCF7 [4] = assay: Induction of apoptosis in human MCF7 cells assessed as necrotic cells measured by AnnexinV/FITC staining based flow cytometry assay ( Rvb = 0.74%); assay type: functional

Carbonic anhydrase 12, sequence (O43570 whole entry): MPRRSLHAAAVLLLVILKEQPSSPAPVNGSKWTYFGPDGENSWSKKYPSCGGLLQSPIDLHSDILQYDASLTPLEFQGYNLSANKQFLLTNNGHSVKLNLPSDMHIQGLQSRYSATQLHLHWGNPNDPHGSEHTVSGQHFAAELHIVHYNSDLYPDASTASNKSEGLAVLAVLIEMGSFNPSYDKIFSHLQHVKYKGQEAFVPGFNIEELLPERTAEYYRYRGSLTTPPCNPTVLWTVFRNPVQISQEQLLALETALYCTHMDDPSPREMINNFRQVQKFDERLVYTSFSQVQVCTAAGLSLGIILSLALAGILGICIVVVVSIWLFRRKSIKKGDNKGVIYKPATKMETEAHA
Carbonic anhydrase 1, sequence (P00915 whole entry): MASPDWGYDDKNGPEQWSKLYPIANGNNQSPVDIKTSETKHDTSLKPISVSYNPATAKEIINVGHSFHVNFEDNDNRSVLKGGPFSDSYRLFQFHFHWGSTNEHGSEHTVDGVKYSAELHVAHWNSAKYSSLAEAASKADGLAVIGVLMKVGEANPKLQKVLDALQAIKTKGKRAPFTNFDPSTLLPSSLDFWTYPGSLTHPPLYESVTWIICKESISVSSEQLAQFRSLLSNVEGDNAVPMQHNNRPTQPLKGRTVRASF

Structure (SMILES)	Ki (Carbonic anhydrase 12)	Ki (Carbonic anhydrase 9)	Ki (Carbonic anhydrase 2)	Ki (Carbonic anhydrase 1)	further results
O=C(N/C=C/C=C/c1ccc2c(c1)OCO2)Nc1ccc(C(=O)O)cc1	–	16.1 µM	–	> 100 µM	–
O=C(N/C=C/C=C/c1ccc2c(c1)OCO2)Nc1ccccc1C(=O)O	–	30.3 µM	–	> 100 µM	–
O=C(N/C=C/C=C/c1ccc2c(c1)OCO2)Nc1ccc(S(=O)(=O)Nc2nccs2)cc1	> 100 µM	> 100 µM	> 100 µM	> 100 µM	–
O=C(N/C=C/C=C/c1ccc2c(c1)OCO2)Nc1cccc(C(=O)O)c1	–	24.8 µM	–	> 100 µM	–
NS(=O)(=O)c1cccc(NC(=O)N/C=C/C=C/c2ccc3c(c2)OCO3)c1	–	0.319 µM	–	–	–
COC(=O)c1cccc(NC(=O)N/C=C/C=C/c2ccc3c(c2)OCO3)c1	> 100 µM	> 100 µM	> 100 µM	> 100 µM	–
NS(=O)(=O)c1ccc(NC(=O)N/C=C/C=C/c2ccc3c(c2)OCO3)cc1	–	0.0387 µM	–	–	IC50 (MCF7 [1]): 2.17 µM; Activity (MCF7 [2]): 23.14%; Activity (MCF7 [3]): 1.91%; Activity (MCF7 [4]): 14.19%

Second part, led by results:

Ki (Carbonic anhydrase 12)	Ki (Carbonic anhydrase 9)	Ki (Carbonic anhydrase 2)	Ki (Carbonic anhydrase 1)	Structure (SMILES)	further results
> 100 µM	> 100 µM	> 100 µM	> 100 µM	COC(=O)c1ccc(NC(=O)N/C=C/C=C/c2ccc3c(c2)OCO3)cc1	–
–	0.0682 µM	–	–	NS(=O)(=O)c1ccc(CCNC(=O)N/C=C/C=C/c2ccc3c(c2)OCO3)cc1	–
–	0.903 µM	–	–	Cc1ccc(NC(=O)N/C=C/C=C/c2ccc3c(c2)OCO3)cc1S(N)(=O)=O	–
–	0.739 µM	–	–	NS(=O)(=O)c1ccccc1NC(=O)N/C=C/C=C/c1ccc2c(c1)OCO2	–
> 100 µM	> 100 µM	> 100 µM	> 100 µM	CC(=O)c1ccc(NC(=O)N/C=C/C=C/c2ccc3c(c2)OCO3)cc1	–

Reference: ChEMBL document CHEMBL4842374, “Natural inspired piperine-based sulfonamides and carboxylic acids as carbonic anhydrase inhibitors: Design, synthesis and biological evaluation” (Eur J Med Chem, 2021)
